# “Also recorded” adds a separate entry of the source.
# Columns and labels:
# TrkA = TrkA Phosphorylation Assay in PC12 cells; type: cell-based; settings: compound 10-50 μM, NGF 10 ng/mL, compared with NGF 50 ng/mL, Western blot/autoradiograph
# Method: Lane PC12 624 cells not treated with NGF; Lane B—PC12 624 cells treated with NGF (50 ng/mL) for 24 hrs; Lane C—PC12 624 cells treated with NGF (50 ng/mL) for 30 minutes; Lane D—PC12 624 cells treated with NGF (10 ng/mL) and compound 23 (50 μM); Lane E—PC12 624 cells treated with NGF (10 ng/mL) and compound 23 (40 μM), Lane F—PC12 624 cells treated with NGF (10 ng/mL) and compound 23 (30 μM); Lane G—PC12 624 cells treated with NGF (10 ng/mL) and compound 23 (20 μM); Lane H—PC12 624 cells treated with a NGF (10 ng/mL) and compound 23 (10 μM); Lane I—PC12 624 cells treated with NGF (50 ng/mL) for 24 hours, and re-treated with NGF (50 ng/mL) for 30 minutes; Lane J—PC12 624 cells treated with NGF (50 ng/mL) for 30 minutes.
# TrkA phosphorylation may be monitored using Trk anti-bodies and Western blot analysis. […] In PC12 expressing cells, this effect is most robust at 30 minutes when 50 ng/mL of NGF is used.
# TrkA Phosphorylation Assay: Culture media was removed from cultured PC12 cells (106-107, 50% confluent) and media containing NGF (1 to 50 ng/mL), 0.1% BSA, and compound (1 to 30 μM) was added. The cells were incubated for 1 to 60 minutes, the media was removed and the cells washed twice with ice cold TBS solution. […]
# SCG ex-plant = assay: Neurite out-growth in SCG ex-plants with minimal NGF; type: cell-based; settings: 30 μM compound, 1 ng/mL NGF, after 2 days
# Method: FIG. 3A is an SCG ex-plant cultured in the absence of NGF. No neurite extensions are visible. FIG. 3B. is an SCG ex-plant cultured in the presence of compound 23 (30 μM).
# In order to determine if these compounds were capable of augmenting NGF signaling in vitro, compound was added to cultured SCG neurons in the presence of ‘minimal’ quantities of NGF. […] Similar results were obtained using NGF differentiated PC12 cells (not shown).
structure (smiles),measurement,setting,value
"O=c1oc2c(Sc3ccc4ccccc4c3)cc(O)cc2s1 [Compound 23, 5-Hydroxy-7-((2-naphthy)sulfanyl)benzo[1,3]oxathiol-2-one]",TrkA phosphorylation,TrkA,maintains the level of TrkA phosphorylation even after 24 hours; also recorded: Comparable levels of TrkA phosphorylation
same,neurite outgrowth,SCG ex-plant,Numerous ordered neurites are present; also recorded: visibly comparable to that observed under ‘optimal’ NGF concentrations

# Reference: US20060234987A1, “Neuroprotective benzo 1 3 oxathiol 2 ones” (priority 2003, published 2006)
